Experimental data as given in US20250381243A1, “HETEROCYCLES AND USES THEREOF” (Kumquat Biosciences Inc., priority 2022, published 2025).

System: A549 cells
Assay: Cell proliferation assay (CellTiter-Glo), cells with K-Ras G12S mutation
Type: cell-based
Conditions: Homo sapiens, ≤500 nM, read-out: Inhibition of A549 Cells (IC50)
Procedure, shortened: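 A549 (K-Ras G12S) cells in RPMI-1640 with 10% heat-inactivated FBS, plated in standard or ultra-low-attachment 384-well format, treated next day with a dilution series (e.g., 10-point, 3-fold). Viability read by CellTiter-Glo luminescence about 6 days later; IC50 from four-parameter fit.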

| Structure (SMILES) | IC50 [nM] |
| --- | --- |
| CCN(C(=O)n1cnc(Cl)n1)[C@@H]1CCN(c2nc(OC[C@@]34CCCN3C[C@H](F)C4)nc3c(F)c(-c4ccc(F)c5sc(N)c(C#N)c45)c(Cl)cc23)[C@@H]1C (atropisomer, axis not shown; (aS)) [Compound 176, N-((2R,3R)-1-(7-((R)-2-amino-3-cyano-7-fluorobenzo[b]thiophen-4-yl)-6-chloro-8-fluoro-2-(((2R,7aS)-2-fluorotetrahydro-1H-pyrrolizin-7a (5H)-yl)methoxy)quinazolin-4-yl)-2-methylpyrrolidin-3-yl)-3-chloro-N-ethyl-1H-1,2,4-triazole-1-carboxamide] | ≤ 500 |
| CC(C)[C@H]1N(C(=O)n2cnc(Cl)n2)C[C@]12C[C@@H](CC#N)CN(c1nc(OC[C@@]34CCCN3C[C@H](F)C4)nc3c(F)c(-c4ccc(F)c5sc(N)c(C#N)c45)c(Cl)cc13)C2 [Compound 137, 2-amino-4-(6-chloro-4-((1R,4R,8S)-2-(3-chloro-1H-1,2,4-triazole-1-carbonyl)-8-(cyanomethyl)-1-isopropyl-2,6-diazaspiro[3.5]nonan-6-yl)-8-fluoro-2-(((2R,7aS)-2-fluorotetrahydro-1H-pyrrolizin-7a(5H)-yl)methoxy)quinazolin-7-yl)-7-fluorobenzo[b]thiophene-3-carbonitrile] | ≤ 500 |
| CC(C)[C@H]1N(C(=O)n2cnc(Cl)n2)C[C@]12CCCCN(c1nc(OC[C@@]34CCCN3C[C@H](F)C4)nc3c(F)c(-c4ccc(F)c5sc(N)c(C#N)c45)c(Cl)cc13)C2 [Compound 142, 2-amino-4-(6-chloro-4-((1R,4R)-2-(3-chloro-1H-1,2,4-triazole-1-carbonyl)-1-isopropyl-2,6-diazaspiro[3.6]decan-6-yl)-8-fluoro-2-(((2R,7aS)-2-fluorotetrahydro-1H-pyrrolizin-7a(5H)-yl)methoxy)quinazolin-7-yl)-7-fluorobenzo[b]thiophene-3-carbonitrile] | ≤ 500 |
| CC(C)[C@@H]1[C@H](CN(C)c2nc(OC[C@@]34CCCN3C[C@H](F)C4)nc3c(F)c(-c4ccc(F)c5sc(N)c(C#N)c45)c(Cl)cc23)CN1C(=O)n1cnc(C(F)F)n1 [Compound 230, 2-amino-4-(6-chloro-4-((((2R,3R)-1-(3-(difluoromethyl)-1H-1,2,4-triazole-1-carbonyl)-2-isopropylazetidin-3-yl)methyl)(methyl)amino)-8-fluoro-2-(((2R,7aS)-2-fluorotetrahydro-1H-pyrrolizin-7a(5H)-yl)methoxy)quinazolin-7-yl)-7-fluorobenzo[b]thiophene-3-carbonitrile] | ≤ 500 |
| CC(C)[C@H]1N(C(=O)n2cncn2)C[C@@]12CN(c1nc(OC[C@@]34CCCN3C[C@H](F)C4)nc3c(F)c(-c4ccc(F)c5sc(N)c(C#N)c45)c(Cl)cc13)CCO2 [Compound 104, 2-amino-4-(6-chloro-8-fluoro-2-(((2R,7aS)-2-fluorotetrahydro-1H-pyrrolizin-7a(5H)-yl)methoxy)-4-((1R,4S)-1-isopropyl-2-(1H-1,2,4-triazole-1-carbonyl)-5-oxa-2,8-diazaspiro[3.5]nonan-8-yl)quinazolin-7-yl)-7-fluorobenzo[b]thiophene-3-carbonitrile] | ≤ 500 |
| CN(C[C@@H]1CN(C(=O)n2cnc(F)n2)[C@@H]1C1(C(F)F)CC1)c1nc(OC[C@@]23CCCN2C[C@H](F)C3)nc2c(F)c(-c3ccc(F)c4sc(N)c(C#N)c34)c(Cl)cc12 [Compound 186, 2-amino-4-(6-chloro-4-((((2S,3R)-2-(1-(difluoromethyl)cyclopropyl)-1-(3-fluoro-1H-1,2,4-triazole-1-carbonyl)azetidin-3-yl)methyl)(methyl)amino)-8-fluoro-2-(((2R,7aS)-2-fluorotetrahydro-1H-pyrrolizin-7a(5H)-yl)methoxy)quinazolin-7-yl)-7-fluorobenzo[b]thiophene-3-carbonitrile] | ≤ 500 |
| CN(C[C@@H]1CN(C(=O)n2cnc(C(F)F)n2)[C@@H]1C1CCC1)c1nc(OC[C@@]23CCCN2C[C@H](F)C3)nc2c(F)c(-c3ccc(F)c4sc(N)c(C#N)c34)c(Cl)cc12 [Compound 236, 2-amino-4-(6-chloro-4-((((2R,3R)-2-cyclobutyl-1-(3-(difluoromethyl)-1H-1,2,4-triazole-1-carbonyl)azetidin-3-yl)methyl)(methyl)amino)-8-fluoro-2-(((2R,7aS)-2-fluorotetrahydro-1H-pyrrolizin-7a(5H)-yl)methoxy)quinazolin-7-yl)-7-fluorobenzo[b]thiophene-3-carbonitrile] | ≤ 500 |
| CC(C)[C@H]1N(C(=O)n2cnc(C(F)F)n2)C[C@@]12CN(c1nc(OC[C@@]34CCCN3C[C@H](F)C4)nc3c(F)c(-c4ccc(F)c5sc(N)c(C#N)c45)c(Cl)cc13)CCO2 [Compound 138, 2-amino-4-(6-chloro-4-((1R,4S)-2-(3-(difluoromethyl)-1H-1,2,4-triazole-1-carbonyl)-1-isopropyl-5-oxa-2,8-diazaspiro[3.5]nonan-8-yl)-8-fluoro-2-(((2R,7aS)-2-fluorotetrahydro-1H-pyrrolizin-7a(5H)-yl)methoxy)quinazolin-7-yl)-7-fluorobenzo[b]thiophene-3-carbonitrile] | ≤ 500 |
